Calls of active or inactive are those of the source. The calls are words filed in the database; no cut-off is given here.
How the values were obtained:
[1] = biological target: Dual specificity mitogen-activated protein kinase kinase 1 (Homo sapiens, UniProt Q02750); experiment: Inhibition of MEK1 (unknown origin) incubated for 1 hrs in the presence of ATP by FRET-based Z'-Lyte assay
A-375 [2] = experiment: Antiproliferative activity against human A-375 cells harboring BRAF V600E mutant assessed as cell growth inhibition incubated for 72 hrs in the absence of UV irradiation by CellTiter-Glo luminescent assay; assay type: functional; conditions: A-375, light or radiation study
A-375 [3] = experiment: Antiproliferative activity against human A-375 cells harboring BRAF V600E mutant assessed as cell growth inhibition preincubated with compound for 1 hrs followed by UV irradiation for 1 min and measured 72 hrs post compound treatment by CellTiter-Glo luminescent assay; assay type: functional; conditions: A-375, light or radiation study
A-375 [4] = experiment: Antiproliferative activity against human A-375 cells harboring BRAF V600E mutant assessed as cell growth inhibition preincubated with compound for 1 hrs followed by UV irradiation for 3 mins and measured 72 hrs post compound treatment by CellTiter-Glo luminescent assay; assay type: functional; conditions: A-375, light or radiation study
A-375 [5] = experiment: Antiproliferative activity against human A-375 cells harboring BRAF V600E mutant assessed as cell growth inhibition preincubated with compound for 1 hrs followed by UV irradiation for 5 mins and measured 72 hrs post compound treatment by CellTiter-Glo luminescent assay; assay type: functional; conditions: A-375, light or radiation study
HCT-116 [6] = experiment: Antiproliferative activity against human HCT-116 cells harboring KRAS G13D mutant assessed as cell growth inhibition incubated for 72 hrs in the absence of UV irradiation by CellTiter-Glo luminescent assay; assay type: functional; conditions: HCT-116, light or radiation study
HCT-116 [7] = experiment: Antiproliferative activity against human HCT-116 cells harboring KRAS G13D mutant assessed as cell growth inhibition preincubated with compound for 1 hrs followed by UV irradiation for 5 mins and measured 72 hrs post compound treatment by CellTiter-Glo luminescent assay; assay type: functional; conditions: HCT-116, light or radiation study
A549 [8] = experiment: Antiproliferative activity against human A549 cells harboring KRAS […] mutant assessed as cell growth inhibition incubated for 72 hrs in the absence of UV irradiation by CellTiter-Glo luminescent assay; assay type: functional; conditions: A549, light or radiation study
A549 [9] = experiment: Antiproliferative activity against human A549 cells harboring KRas […] mutant assessed as cell growth inhibition preincubated with compound for 1 hrs followed by UV irradiation for 5 mins and measured 72 hrs post compound treatment by CellTiter-Glo luminescent assay; assay type: functional; conditions: A549, light or radiation study
[10] = Cytotoxicity against HEK293T cells assessed as cell growth inhibition incubated for 72 hrs by CellTiter-Glo luminescent assay; assay type: toxicity, cell-based, HEK-293T; conditions: human
[11] = Photoactivation of the compound assessed as fold change in caging efficiency
[12] = Photoactivation of the compound assessed as photocleavage by measuring decay half-life in the presence of 365 nm UV irradiation by HPLC based LC-MS analysis
[13] = Photoactivation of the compound assessed as photocleavage by measuring mirdametinib recovery in the presence of 365 nm UV irradiation by HPLC based LC-MS analysis
A-375 [14] = experiment: Antiproliferative activity against human A-375 cells harboring BRAF V600E mutant assessed as cell growth inhibition preincubated with compound for 1 hrs followed by 365 nm light irradiation for 5 mins and measured 72 hrs post compound treatment by CellTiter-Glo luminescent assay; assay type: functional; conditions: A-375, light or radiation study
[15] = Cytotoxicity against HEK293T cells assessed as cell growth inhibition preincubated with compound for 1 hrs followed by 365 nm light irradiation for 5 mins and measured 72 hrs post compound treatment by CellTiter-Glo luminescent assay; assay type: toxicity, cell-based, HEK-293T; conditions: human
[16] = Stability of the compound in PBS-DMSO solution assessed as drug degradation measured after 12 hrs in the absence of light irradiation; assay type: physicochemical; conditions: read-out: Drug degradation
[17] = Photoactivation of the compound assessed as photocleavage in the presence of 365 nm UV irradiation by HPLC based LC-MS analysis
A-375 [18] = experiment: Inhibition of colony formation in human A-375 cells at 10 to 300 nM incubated for 10 days by crystal violet staining based analysis; assay type: functional, cell-based; conditions: dose 10-300 nM, time 10.0 day
[19] = biological target: Mitogen-activated protein kinase; ERK1/ERK2 (Homo sapiens, UniProt P27361+P28482); experiment: Inhibition of ERK1/2 phosphorylation in human A-375 cells incubated for 1 hrs in the absence of UV irradiation by Western blot analysis; assay type: cell-based
[20] = Stability in human blood plasma assessed as half-life; assay type: ADME, cell-free
[21] = Stability of the compound under 365 nm UV irradiation measured after 10 mins; assay type: physicochemical

Chain of Dual specificity mitogen-activated protein kinase kinase 1 (Q02750 whole entry): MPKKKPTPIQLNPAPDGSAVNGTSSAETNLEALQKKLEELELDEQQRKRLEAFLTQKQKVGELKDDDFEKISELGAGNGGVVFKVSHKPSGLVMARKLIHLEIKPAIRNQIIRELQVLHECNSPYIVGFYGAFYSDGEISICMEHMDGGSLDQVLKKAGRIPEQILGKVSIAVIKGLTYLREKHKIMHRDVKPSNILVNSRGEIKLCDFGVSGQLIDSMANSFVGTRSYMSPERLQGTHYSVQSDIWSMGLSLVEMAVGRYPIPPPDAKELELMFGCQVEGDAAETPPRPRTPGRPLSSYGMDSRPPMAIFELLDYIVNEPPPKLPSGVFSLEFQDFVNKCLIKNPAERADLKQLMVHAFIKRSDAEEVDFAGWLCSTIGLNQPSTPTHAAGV

Row | GI50 (A-375 [2]) | GI50 (A-375 [3]) | GI50 (A-375 [4]) | GI50 (A-375 [5]) | GI50 (HCT-116 [6]) | GI50 (HCT-116 [7]) | GI50 (A549 [8]) | GI50 (A549 [9]) | half-life [12] | GI50 (A-375 [14]) | Compound | GI50 at 72 h [10] | GI50 at 72 h [15] | other results
1 | 9.79 µM | 0.223 µM | 0.123 µM | 0.107 µM | 1.5 µM | 1.75 µM | > 10 µM | 0.27 µM | 0.2 min |  | CCN(CC)c1ccc2c(CO/C(=N\OC[C@H](O)CO)c3ccc(F)c(F)c3Nc3ccc(I)cc3F)cc(=O)oc2c1 | > 10 µM |  | IC50 [1]: > 30 µM; fold change (FC) [11]: > 5085; Drug recovery [13]: < 10%
2 | > 100 µM |  |  |  |  |  |  |  |  | > 0.1 µM | C[C@H](NC(=O)OC(C)(C)C)C(=O)O |  | > 100 µM | 
3 | > 100 µM |  |  |  |  |  |  |  |  | > 0.1 µM | COc1cc(C(C)OC(=O)[C@H](C)NC(=O)OC(C)(C)C)c([N+](=O)[O-])cc1OC (some centres undefined) |  | > 100 µM | 
4 | 0.0181 µM | 0.00995 µM | 0.00376 µM | 0.00559 µM |  |  |  |  | 0.19 min |  | COc1cc(CN(c2ccc(I)cc2F)c2c(C(=O)NOC[C@H](O)CO)ccc(F)c2F)c([N+](=O)[O-])cc1OC |  |  | degraded at 12 h [16]: > 30%
5 | 1.17 µM | 0.272 µM | 0.0828 µM | 0.0822 µM | 1.92 µM | 1.05 µM | > 10 µM | 1.89 µM | 1.71 min |  | COc1cc(CO/C(=N\OC[C@H](O)CO)c2ccc(F)c(F)c2Nc2ccc(I)cc2F)c([N+](=O)[O-])cc1OC | > 10 µM |  | 
6 | > 100 µM |  |  |  |  |  |  |  |  | > 0.1 µM | CC(OC(=O)[C@H](C)NC(=O)OC(C)(C)C)c1cc2c(cc1[N+](=O)[O-])OCO2 (some centres undefined) |  | > 100 µM | 
7 | > 100 µM |  |  |  |  |  |  |  |  | > 0.1 µM | COc1cc(COC(=O)[C@H](C)NC(=O)OC(C)(C)C)c([N+](=O)[O-])cc1OC |  | > 100 µM | 
8 | 1.52 µM |  |  |  |  |  |  |  |  |  | COc1ccc(CN(c2ccc(I)cc2F)c2c(C(=O)NOC[C@H](O)CO)ccc(F)c2F)cc1OC |  |  | 
9 | > 100 µM |  |  |  |  |  |  |  |  | > 0.1 µM | C[C@H](NC(=O)OC(C)(C)C)C(=O)OCc1cc2c(cc1[N+](=O)[O-])OCO2 |  | > 100 µM | 
10 | 3.61 µM | 0.0286 µM | 0.0097 µM | 0.00717 µM | > 10 µM | 0.169 µM | > 10 µM | 0.479 µM | 1.26 min |  | CC(O/C(=N\OC[C@H](O)CO)c1ccc(F)c(F)c1Nc1ccc(I)cc1F)c1cc2c(cc1[N+](=O)[O-])OCO2 (some centres undefined) | > 10 µM |  | Drug metabolism [17]: Metabolite_Detected
11 | 0.00336 µM |  |  |  |  |  |  |  |  |  | O=C(NOCCO)c1ccc(F)c(F)c1Nc1ccc(I)cc1F |  |  | 
12 | 0.605 µM | 0.129 µM | 0.0367 µM | 0.0403 µM | > 10 µM | 0.236 µM | > 10 µM | 0.896 µM | 1.68 min |  | O=[N+]([O-])c1cc2c(cc1CO/C(=N\OC[C@H](O)CO)c1ccc(F)c(F)c1Nc1ccc(I)cc1F)OCO2 | > 10 µM |  | Drug metabolism [17]: Metabolite_Detected
13 | 0.00128 µM | 0.00137 µM | 0.00159 µM | 0.00149 µM | 0.0447 µM | 0.0525 µM | 0.00494 µM | 0.0106 µM |  |  | O=C(NOC[C@H](O)CO)c1ccc(F)c(F)c1Nc1ccc(I)cc1F [MIRDAMETINIB] | > 10 µM |  | inhibition (A-375 [18]): Active; EC50 [19]: ~ 1.2 nM; half-life [20]: > 289 min; Stability [21]: Stable
14 | 7.13 µM | 0.0434 µM | 0.016 µM | 0.0094 µM |  |  |  |  | 0.52 min |  | COc1cc(COCCONC(=O)c2ccc(F)c(F)c2Nc2ccc(I)cc2F)c([N+](=O)[O-])cc1OC |  |  | 
15 | > 100 µM |  |  |  |  |  |  |  |  | 0.0158 µM | CCN(CC)c1ccc2c(COC(=O)[C@H](C)NC(=O)OC(C)(C)C)cc(=O)oc2c1 |  | > 100 µM | 
